Data reported in article PMC12081876, “Identification of PTGR2 inhibitors as a new therapeutic strategy for diabetes and obesity” (EMBO Molecular Medicine, 2025).
“And” between values parts separate entries of the source, which are not always exact repeats. Equal entries are not always repeated.

Key:
[1] = tested on: differentiated 3T3-L1 adipocytes; experiment: Insulin-stimulated glucose uptake assay by (3H)2-deoxyglucose; type: cell-based, mouse; conditions: differentiated 3T3-L1 adipocytes
Protocol: The cell lines, which were tested for mycoplasma contamination and authenticated, were purchased from the Bioresource Collection and Research Center, Taiwan. All cells were cultured at 37 °C, 5% CO2 in a humidified incubator. HEK293T cells were maintained in DMEM (cat. no. SH30003.02, HyClone) supplemented with 10% fetal bovine serum (FBS) (cat. no. 04-001-1A, Biological Industries) and 1% antibiotic/antimycotic solution (cat. no. SV30079.01, HyClone). 3T3-L1 preadipocytes were maintained at ~70% confluence in DMEM with 10% calf serum (cat. no. 16170078, Gibco) and 1% antibiotic/antimycotic solution. For adipocyte differentiation, confluent 3T3-L1 cells (defined as day 0) were exposed to an induction medium containing 10% FBS, 1 μM dexamethasone (cat. no. D4902, Sigma-Aldrich), and 1 μg/ml insulin (Humulin R, Eli Lilly) in DMEM with or without 0.5 mM isobutyl-methylxanthine (cat. no. sc-201188A, Santa Cruz Biotechnology) as indicated. After two days, the medium was replaced with DMEM containing 10% FBS and 1 μg/ml insulin and was replenished every two days until assay.
Differentiated 3T3-L1 cells were starved with serum-free DMEM containing 0.2% BSA (cat. no. A9647, Sigma-Aldrich). Cells were rinsed twice with KRH buffer (137 mM NaCl, 4.7 mM KCl, 1.85 mM CaCl2, 1.3 mM MgSO4, 50 mM HEPES and 0.1% BSA, pH 7.4), and treated with or without […] insulin in the presence of 20 μM cytochalasin B (cat. no. 11328, Cayman Chemical), a GLUT inhibitor for measuring non-specific glucose uptake, for 30 min. Cells were then incubated with 0.5 μCi [^3H]-2-deoxy-D-Glucose (cat. no. NET328A001MC, PerkinElmer) and 0.1 μM 2-deoxy-D-Glucose (2DG) (cat. no. 14325, Cayman Chemical) for 5 min. Uptake of 2DG was terminated by rapidly removing medium and washing with ice-cold PBS three times. Cells were lysed with 0.1% SDS, and the radioactivity was measured using a liquid scintillation counter. Insulin-mediated glucose uptake was calculated by subtracting insulin-treated glucose uptake with basal glucose uptake.

[2] = tested on: HFHSD-fed obese C57BL6/J mice; experiment: Body weight / diet-induced obesity in HFHSD-fed mice; type: in vivo, mouse; conditions: for Body weight, Avg: BPRPT0245 100 mg/kg/day (Figure 5J); for Body weight, Avg / Body weight, Average / Body weight (individual mouse): in g (unit assumed); for Body weight, Average / Body weight (individual mouse): Figure 5J; for Body weight, Average: 100 mg/kg/day; for Body weight (individual mouse): BPRPT0245 group

Cc1[nH]c2nc(C(C)N3CCN(c4ccccc4)CC3)nn2c(=O)c1Cc1ccc(F)cc1 (centres unmarked) [BPRPT0245]
insulin-stimulated glucose uptake [1]: augmented insulin-stimulated glucose uptake of differentiated 3T3-L1 adipocytes | diet-induced obesity (body weight) ([2]; 100 mg/kg/day oral, HFHSD-fed mice, vs vehicle): significantly prevented diet-induced obesity | Body weight, Avg ([2]; time point 0): 30.59 | Body weight, Avg ([2]; time point 1): 31.2 | Body weight, Avg ([2]; time point 2): 31.673 | Body weight, Avg ([2]; time point 3): 32.167 | Body weight, Avg ([2]; time point 4): 32.92 | Body weight, Avg ([2]; time point 5): 32.837 | Body weight, Avg ([2]; time point 6): 33.673 | Body weight, Avg ([2]; time point 7): 33.323 | Body weight, Avg ([2]; time point 8): 33.923 | Body weight, Avg ([2]; time point 9): 34.59 | Body weight, Avg ([2]; time point 10): 35.623 | Body weight, Avg ([2]; time point 11): 36.193 | Body weight, Avg ([2]; time point 12): 37.113 | Body weight, Avg ([2]; time point 13): 36.957 | Body weight, Avg ([2]; time point 14): 38.33 | Body weight, Avg ([2]; time point 15): 38.607 | Body weight, Avg ([2]; time point 16): 39.303 | Body weight, Avg ([2]; time point 17): 40.533 | Body weight, Avg ([2]; time point 18): 40.933 | Body weight, Avg ([2]; time point 19): 42.11 | Body weight, Avg ([2]; time point 20): 41.483 | Body weight, Avg ([2]; time point 21): 42.933 | Body weight, Avg ([2]; time point 22): 43.33 | Body weight, Avg ([2]; time point 23): 44.06 | Body weight, Avg ([2]; time point 24): 44.36 | Body weight, Avg ([2]; time point 25): 45.28 | Body weight, Average ([2]; week 0): 30.59 | Body weight (individual mouse) ([2]; week 0): 30 and 33.8 and 29.8 and 28.35 | Body weight, Average ([2]; week 1): 31.2 | Body weight (individual mouse) ([2]; week 1): 30.45 and 34.45 and 30.15 and 29.55 | Body weight, Average ([2]; week 2): 31.6733 | Body weight (individual mouse) ([2]; week 2): 31.05 and 34.25 and 30.6 and 30.25 | Body weight, Average ([2]; week 3): 32.1667 | Body weight (individual mouse) ([2]; week 3): 31.8 and 34.4 and 30.9 and 31.9 | Body weight, Average ([2]; week 4): 32.92 | Body weight (individual mouse) ([2]; week 4): 32.8 and 36.5 and 31.8 and 33.15 | Body weight, Average ([2]; week 5): 32.8367 | Body weight (individual mouse) ([2]; week 5): 34.2 and 36 and 31.6 | Body weight, Average ([2]; week 6): 33.6733 | Body weight (individual mouse) ([2]; week 6): 34.5 and 37.15 and 31.9 | Body weight, Average ([2]; week 7): 33.3233 | Body weight (individual mouse) ([2]; week 7): 31.45 and 36.9 and 31.75 | Body weight, Average ([2]; week 8): 33.9233 | Body weight (individual mouse) ([2]; week 8): 34.8 and 36.35 and 31.55 | Body weight, Average ([2]; week 9): 34.59 | Body weight (individual mouse) ([2]; week 9): 35.75 and 38 and 32.05 and 35.25 | Body weight, Average ([2]; week 10): 35.6233 | Body weight (individual mouse) ([2]; week 10): 38.1 and 37.65 and 32.65 and 35.65 | Body weight, Average ([2]; week 11): 36.1933 | Body weight (individual mouse) ([2]; week 11): 39.55 and 38.45 and 32.7 and 35.65 | Body weight, Average ([2]; week 12): 37.1133 | Body weight (individual mouse) ([2]; week 12): 40.35 and 39.35 and 33.6 and 37.1 | Body weight, Average ([2]; week 13): 36.9567 | Body weight (individual mouse) ([2]; week 13): 40.15 and 39.25 and 33.15 and 37.05 | Body weight, Average ([2]; week 14): 38.33 | Body weight (individual mouse) ([2]; week 14): 42.7 and 39.9 and 33.45 and 38.65 | Body weight, Average ([2]; week 15): 38.6067
